Results on one compound are retold here after patent publication US20020151572A1, “PHARMACEUTICAL USES FOR NOS INHIBITORS” (priority 1998, published 2002).

Counter-ions that a name gives are not always drawn.

Compound `CC(C)Oc1cc(C(O)CN2CCN(CCc3ccccc3)CC2)ccc1-c1cccc(N)n1` (stereo not shown) (as salt: hydrochloride) [Example 1, 1-[4-(6-AMINO-PYRIDIN-2-YL)-3-ISOPROPOXY-PHENYL]-2-(4-PHENETHYL-PIPERAZIN-1-YL)-ETHANOL] gave a melting point of 148 to 165 °C.
